Data as given in PubChem BioAssay AID328 (DTP/NCI, 2004).
Where “and” joins values, the source holds several entries; their conditions need not be identical. Equal values may be shown once. Toxic doses and inconclusive results are not listed.

System: BDF1 mice, P388 leukemia ip, median survival T/C
Assay: NCI In Vivo Anticancer Drug Screen. Data for tumor model P388 Leukemia (intraperitoneal) in B6D2F1 (BDF1) mice
Settings: endpoint: median survival time, higher = longer survival
In short: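 Mice carrying the transplantable tumour receive compound or vehicle. Survival is followed in each arm, and the treated measure is divided by the vehicle measure.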

[1] = dose: 100.0 mg/kg/injection, schedule: Q04DX003 (ip), vehicle: saline with Tween-80
[2] = dose: 400.0 mg/kg/injection, schedule: Q04DX003 (ip), vehicle: saline with Tween-80
[3] = dose: 12.5 mg/kg/injection, schedule: Q01DX009 (ip), vehicle: Klucel (hydroxypropylcellulose) (HPC)
[4] = dose: 25.0 mg/kg/injection, schedule: Q01DX009 (ip), vehicle: Klucel (hydroxypropylcellulose) (HPC)
[5] = dose: 50.0 mg/kg/injection, schedule: Q01DX009 (ip), vehicle: Klucel (hydroxypropylcellulose) (HPC)
[6] = dose: 100.0 mg/kg/injection, schedule: Q01DX009 (ip), vehicle: saline with Tween-80
[7] = dose: 200.0 mg/kg/injection, schedule: Q04DX003 (ip), vehicle: saline with Tween-80

In the case of c1ccc(CC(Cc2ccccc2)c2nc3ccccc3s2)cc1, the T/C (dose: 75.0 mg/kg/injection, schedule: Q04DX003 (ip), vehicle: saline) is reported as 100 % of control, the T/C (dose: 150.0 mg/kg/injection, schedule: Q04DX003 (ip), vehicle: saline) is reported as 100 % of control and the T/C (dose: 300.0 mg/kg/injection, schedule: Q04DX003 (ip), vehicle: saline) is reported as 95 % of control.
With O=[N+]([O-])/C=C/c1ccc2ccccc2c1 the T/C (dose: 88.0 mg/kg/injection, schedule: Q04DX003 (ip), vehicle: saline sonified) was 116 % of control, the T/C (dose: 100.0 mg/kg/injection, schedule: Q01DX009 (ip), vehicle: saline sonified) was 100 % of control and the T/C [1] was 120 % of control. The T/C (dose: 132.0 mg/kg/injection, schedule: Q04DX003 (ip), vehicle: saline sonified) was 116 % of control, the T/C (dose: 200.0 mg/kg/injection, schedule: Q04DX003 (ip), vehicle: saline sonified) was 111 % of control and the T/C (dose: 300.0 mg/kg/injection, schedule: Q04DX003 (ip), vehicle: saline sonified) was 116 % of control. For the same molecule, the T/C [2] was 90 % of control.
Cc1ccc(C(=O)C2CN(C)CCC2(O)c2ccc(C)cc2)cc1 (stereo not drawn) was tested, and the T/C (dose: 100.0 mg/kg/injection, schedule: Q01DX001 (ip), vehicle: Klucel (hydroxypropylcellulose) (HPC)) was 90 % of control, the T/C (dose: 200.0 mg/kg/injection, schedule: Q01DX001 (ip), vehicle: Klucel (hydroxypropylcellulose) (HPC)) was 110 % of control and the T/C (dose: 400.0 mg/kg/injection, schedule: Q01DX001 (ip), vehicle: Klucel (hydroxypropylcellulose) (HPC)) was 90 % of control.
CCC(C#N)(c1ccccc1)c1ccccc1 was tested, and the T/C (dose: 100.0 mg/kg/injection, schedule: Q01DX009 (ip), vehicle: Klucel (hydroxypropylcellulose) (HPC)) was 90 % of control, the T/C (dose: 100.0 mg/kg/injection, schedule: Q04DX003 (ip), vehicle: Klucel (hydroxypropylcellulose) (HPC)) was 95 % of control and the T/C (dose: 200.0 mg/kg/injection, schedule: Q04DX003 (ip), vehicle: Klucel (hydroxypropylcellulose) (HPC)) was 95 % of control. For the same molecule, the T/C (dose: 400.0 mg/kg/injection, schedule: Q01DX009 (ip), vehicle: Klucel (hydroxypropylcellulose) (HPC)) was 100 % of control and the T/C (dose: 400.0 mg/kg/injection, schedule: Q04DX003 (ip), vehicle: Klucel (hydroxypropylcellulose) (HPC)) was 100 % of control.
In the case of CCC(C)C1NC(=O)C(NC(=O)c2c3nc4c(C(=O)NC5C(=O)NC(C(C)CC)C(=O)N6CCCC6C(=O)N(C)CC(=O)N(C)C(C(C)C)C(=O)OC5C)cc([N+](=O)[O-])c(C)c4oc-3c(C)c(=O)c2N)C(C)OC(=O)C(C(C)C)N(C)C(=O)CN(C)C(=O)C2CCCN2C1=O (stereo not drawn), the T/C (dose: 0.15 mg/kg/injection, schedule: Q04DX003 (ip), vehicle: saline + alcohol) is reported as 197 % of control, the T/C (dose: 0.3 mg/kg/injection, schedule: Q04DX003 (ip), vehicle: saline + alcohol) is reported as 157 % of control and 216 % of control and the T/C (dose: 0.6 mg/kg/injection, schedule: Q04DX003 (ip), vehicle: saline + alcohol) is reported as 229 % of control and 221 % of control. The T/C (dose: 1.2 mg/kg/injection, schedule: Q04DX003 (ip), vehicle: saline + alcohol) was 270 % of control and 177 % of control, the T/C (dose: 2.4 mg/kg/injection, schedule: Q04DX003 (ip), vehicle: saline + alcohol) was 116 % of control and the T/C (dose: 50.0 micrograms/kg/injection, schedule: Q01DX009 (ip), vehicle: saline + alcohol) was 173 % of control. The T/C (dose: 100.0 micrograms/kg/injection, schedule: Q01DX009 (ip), vehicle: saline + alcohol) was 197 % of control, the T/C (dose: 200.0 micrograms/kg/injection, schedule: Q01DX009 (ip), vehicle: saline + alcohol) was 312 % of control and the T/C (dose: 400.0 micrograms/kg/injection, schedule: Q01DX009 (ip), vehicle: saline + alcohol) was 118 % of control.
In the case of CCCCSC#N, the T/C (dose: 6.25 mg/kg/injection, schedule: Q01DX001 (ip), vehicle: saline) is reported as 94 % of control and the T/C (dose: 12.5 mg/kg/injection, schedule: Q01DX001 (ip), vehicle: saline) is reported as 100 % of control.
For O=C1NC(C2CC3C=CC2C3)Nc2ccccc21 (stereo not drawn), the T/C [3] was 104 % of control, the T/C (dose: 12.5 mg/kg/injection, schedule: Q04DX003 (ip), vehicle: Klucel (hydroxypropylcellulose) (HPC)) was 100 % of control and the T/C [4] was 104 % of control. For the same molecule, the T/C (dose: 25.0 mg/kg/injection, schedule: Q04DX003 (ip), vehicle: Klucel (hydroxypropylcellulose) (HPC)) was 86 % of control and the T/C [5] was 95 % of control.
With O=C1c2ccccc2C(=O)C(N2CCOCC2)C1Cl (stereo not drawn) the T/C (dose: 3.0 mg/kg/injection, schedule: Q01DX009 (ip), vehicle: saline with Tween-80) was 98 % of control, the T/C (dose: 6.0 mg/kg/injection, schedule: Q01DX009 (ip), vehicle: saline with Tween-80) was 97 % of control and the T/C (dose: 12.0 mg/kg/injection, schedule: Q01DX009 (ip), vehicle: saline with Tween-80) was 100 % of control.
For CNCCNC, the T/C (dose: 50.0 mg/kg/injection, schedule: Q01DX005 (ip), vehicle: saline) was 100 % of control, the T/C (dose: 100.0 mg/kg/injection, schedule: Q01DX005 (ip), vehicle: saline) was 98 % of control and the T/C (dose: 200.0 mg/kg/injection, schedule: Q01DX005 (ip), vehicle: saline) was 95 % of control.
Cc1cc(-c2ccccc2)c2ccccc2c1N(CC(=O)O)S(=O)(=O)c1ccccc1 was tested, and the T/C (dose: 44.0 mg/kg/injection, schedule: Q01DX009 (ip), vehicle: saline with Tween-80) was 95 % of control and 105 % of control, the T/C (dose: 66.0 mg/kg/injection, schedule: Q01DX009 (ip), vehicle: saline with Tween-80) was 110 % of control and the T/C [6] was 95 % of control and 120 % of control. For the same molecule, the T/C (dose: 150.0 mg/kg/injection, schedule: Q01DX009 (ip), vehicle: saline with Tween-80) was 121 % of control.
N#CC(C#N)=C1SCS1 was tested, and the T/C (dose: 3.12 mg/kg/injection, schedule: Q01DX009 (ip), vehicle: saline with Tween-80) was 123 % of control and the T/C (dose: 6.25 mg/kg/injection, schedule: Q01DX009 (ip), vehicle: saline with Tween-80) was 123 % of control.
CC1(C)OCC(=NNC(N)=O)CO1 was tested, and the T/C (dose: 100.0 mg/kg/injection, schedule: Q04DX003 (ip), vehicle: saline) was 98 % of control.
For O=[N+]([O-])c1ccc(N2CCN(c3cccc(C(F)(F)F)c3)CC2)c([N+](=O)[O-])c1, the T/C [1] was 113 % of control, the T/C [7] was 100 % of control and the T/C [2] was 100 % of control.
In the case of CCOC(=O)/C(=C\c1ccccc1)O/C(=C/c1ccccc1)C(=O)OCC, the T/C (dose: 100.0 mg/kg/injection, schedule: Q04DX002 (ip), vehicle: saline with Tween-80) is reported as 89 % of control and the T/C (dose: 400.0 mg/kg/injection, schedule: Q04DX002 (ip), vehicle: saline with Tween-80) is reported as 93 % of control.
NS(=O)(=O)c1ccc(NC(=O)/C=C/C(=O)O)cc1 was tested, and the T/C [1] was 100 % of control, the T/C [7] was 100 % of control and the T/C [2] was 95 % of control.
In the case of C=CCCCCCCCCC(=O)NCC1CC1, the T/C [6] is reported as 100 % of control, the T/C (dose: 200.0 mg/kg/injection, schedule: Q01DX009 (ip), vehicle: saline with Tween-80) is reported as 90 % of control and the T/C (dose: 400.0 mg/kg/injection, schedule: Q01DX009 (ip), vehicle: saline with Tween-80) is reported as 86 % of control.
In the case of CN1CCCc2cccc(NC(=O)C3CCCNC3=O)c21 (stereo not drawn), the T/C [1] is reported as 101 % of control, the T/C [7] is reported as 100 % of control and the T/C [2] is reported as 116 % of control.
For CCCNC(=O)Oc1ccc(C(=O)OCC)cc1, the T/C [1] was 100 % of control, the T/C [7] was 109 % of control and the T/C [2] was 113 % of control.
For O=C(CC(NC(=O)OCc1ccccc1)c1nn[nH]n1)OCc1ccccc1 (stereo not drawn), the T/C [1] was 100 % of control, the T/C [7] was 95 % of control and the T/C [2] was 95 % of control.
With NC(N)=N/N=C/c1ccc(Cl)c(Cl)c1 the T/C (dose: 6.25 mg/kg/injection, schedule: Q01DX009 (ip), vehicle: Klucel (hydroxypropylcellulose) (HPC)) was 102 % of control, the T/C [3] was 100 % of control and the T/C [4] was 94 % of control. The T/C [5] was 100 % of control.
For BrCCC1(CCBr)CCCCC1, the T/C (dose: 12.5 mg/kg/injection, schedule: Q01DX009 (ip), vehicle: water) was 113 % of control, the T/C (dose: 25.0 mg/kg/injection, schedule: Q01DX009 (ip), vehicle: water) was 97 % of control and the T/C (dose: 50.0 mg/kg/injection, schedule: Q01DX009 (ip), vehicle: water) was 96 % of control. The T/C (dose: 50.0 mg/kg/injection, schedule: Q04DX003 (ip), vehicle: water) was 106 % of control, the T/C (dose: 100.0 mg/kg/injection, schedule: Q01DX009 (ip), vehicle: water) was 99 % of control and the T/C (dose: 100.0 mg/kg/injection, schedule: Q04DX003 (ip), vehicle: water) was 111 % of control. For the same molecule, the T/C (dose: 200.0 mg/kg/injection, schedule: Q01DX009 (ip), vehicle: water) was 108 % of control, the T/C (dose: 200.0 mg/kg/injection, schedule: Q04DX003 (ip), vehicle: water) was 106 % of control and the T/C (dose: 300.0 mg/kg/injection, schedule: Q04DX003 (ip), vehicle: water) was 107 % of control. The T/C (dose: 400.0 mg/kg/injection, schedule: Q01DX009 (ip), vehicle: water) was 118 % of control, the T/C (dose: 400.0 mg/kg/injection, schedule: Q04DX003 (ip), vehicle: water) was 122 % of control and the T/C (dose: 500.0 mg/kg/injection, schedule: Q04DX003 (ip), vehicle: water) was 109 % of control.
